Results reported in patent US11930814B2, “Pesticidal mixtures comprising cyanosulfoximine compounds” (BASF SE, priority 2007, dated 2024).

Key:
Assay type in all cases: in vivo
[1] = system: Mediterranean fruitfly (Ceratitis capitata); test: Test B.4: control of Mediterranean fruitfly, insect diet with eggs in microtiter plates; settings: 5 days
Protocol: For evaluating control of Mediterranean fruitfly (Ceratitis capitata) the test unit consisted of well-microtiter plates containing an insect diet and 50-80 C. capitata eggs. The compounds or mixtures were formulated using a solution containing 75 wt % water and 25 wt % DMSO. Different concentrations of formulated compounds or mixtures were sprayed onto the insect diet at 5 μl, using a custom built micro atomizer, at two replications.
(§1) For experimental mixtures in these tests identical volumes of both mixing partners at the desired concentrations respectively, were mixed together.
After application, microtiter plates were incubated at 28±1° C., 80±5% RH for 5 days. Egg and larval mortality was then visually assessed.

[2] = system: vetch aphid (Megoura viciae); test: Test B.1: control of vetch aphid on broad bean leaf disks in microtiter plates (contact or systemic); settings: 5 days
Protocol: For evaluating control of vetch aphid (Megoura viciae) through contact or systemic means the test unit consisted of microtiter plates containing broad bean leaf disks. The compounds or mixtures were formulated using a solution containing 75 wt % water and 25 wt % DMSO. Different concentrations of formulated compounds or mixtures were sprayed onto the leaf disks at 2.5 μl, using a custom built micro atomizer, at two replications.
as §1
After application, the leaf disks were air-dried and 5-8 adult aphids placed on the leaf disks inside the microtiter plate wells. The aphids were then allowed to suck on the treated leaf disks and incubated at 23±1° C., 50±5% RH (relative humidity) for 5 days. Aphid mortality and fecundity was then visually assessed.

[3] = system: boll weevil (Anthonomus grandis); test: Test B.3: control of boll weevil, insect diet with eggs in microtiter plates; settings: 5 days
Protocol: For evaluating control of boll weevil (Anthonomus grandis) the test unit consisted of well-microtiter plates containing an insect diet and 20-30 A. grandis eggs.
The compounds or mixtures were formulated using a solution containing 75 wt % water and 25 wt % DMSO. Different concentrations of formulated compounds or mixtures were sprayed onto the insect diet at 20 μl, using a custom built micro atomizer, at two replications.
as §1
After application, microtiter plates were incubated at 23±1° C., 50±5% RH for 5 days. Egg and larval mortality was then visually assessed.

[4] = system: green peach aphid (Myzus persicae); test: Test B.2: control of green peach aphid through systemic means, artificial diet under membrane in microtiter plates; settings: 3 days
Text: For evaluating control of green peach aphid (Myzus persicae) through systemic means the test unit consisted of microtiter plates containing liquid artificial diet under an artificial membrane.
The compounds or mixtures were formulated using a solution containing 75 wt % water and 25 wt % DMSO. Different concentrations of formulated compounds or mixtures were pipetted into the aphid diet, using a custom built pipetter, at two replications. For experimental mixtures in these tests identical volumes of both mixing partners at the desired concentrations respectively, were mixed together.
After application, 5-8 adult aphids were placed on the artificial membrane inside the microtiter plate wells. The aphids were then allowed to suck on the treated aphid diet and incubated at 23±1° C., 50±5% RH for 3 days. Aphid mortality and fecundity was then visually assessed.

[5] = 0.4 + 0 ppm (compound II + compound I), compound II alone
[6] = 2 + 0 ppm (compound II + compound I), compound II alone
[7] = 0 + 20 ppm (compound II + compound I), compound I alone
[8] = 0 + 0.8 ppm (compound II + compound I), compound I alone
[9] = 4 + 0 ppm (compound II + compound I), compound II alone
[10] = 200 + 0 ppm (compound II + compound I), compound II alone
[11] = 0.08 + 0 ppm (compound II + compound I), compound II alone

**Q.** How did the “Average Control %” value [1, 5] turn out when `CC1(C)C(C=C(Cl)Cl)C1C(=O)OC(C#N)c1cccc(Oc2ccccc2)c1` (stereo not drawn) [Alphacypermethrin, alpha-cypermethrin] was run?
**A.** Its value is 0%.

**Q.** What about the “Average Control %” value [2, 6] of the same compound?
**A.** The value was 0%.

**Q.** Which results are given for `CS(=O)(Cc1ccc(Cl)nc1)=NC#N` (centres unmarked) [Compound C.I.1]?
**A.** Average Control % ([1]; 0 + 4 ppm (compound II + compound I), compound I alone): 0%; Average Control % [1, 7]: 0%; Average Control % [3, 7]: 0%; Average Control % [4, 7]: 50%; Average Control % [2, 8]: 0%

**Q.** `CC(c1ccc(Cl)nc1)S(C)(=O)=NC#N` (centres unmarked) [Compound C.I.2] was tested. Which “Average Control %” value ([1]; 0 + 10 ppm (compound II + compound I), compound I alone) did it give?
**A.** Its value is 0%.

**Q.** And the “Average Control %” value [1, 7]?
**A.** Its value is 0%.

**Q.** And the “Average Control %” value [2, 8]?
**A.** Its value is 0%.

**Q.** How did the “Average Control %” value [1, 5] turn out when `CNC(=O)c1cc(C#N)cc(C)c1NC(=O)c1cc(Br)nn1-c1ncccc1Cl` [Compound II.A^13.1] was run?
**A.** The value was 0%.

**Q.** `N#Cc1nn(-c2c(Cl)cc(C(F)(F)F)cc2Cl)c(N)c1[S+]([O-])C(F)(F)F` (centres unmarked) [Fipronil, fipronil] was tested. Which “Average Control %” value [2, 6] did it give?
**A.** The value was 25%.

**Q.** Which results are given for `O=[N+]([O-])NC1=NCCN1Cc1ccc(Cl)nc1` [Imidacloprid, imidacloprid]?
**A.** Average Control % [1, 9]: 0%; Average Control % [3, 6]: 25%

**Q.** Which “Average Control %” value [1, 10] does the source give for `CC(C)(C)c1ccc(CSc2cnn(C(C)(C)C)c(=O)c2Cl)cc1` [Pyridaben, pyridaben] here?
**A.** Its value is 50%.

**Q.** What about the “Average Control %” value [2, 10] of the same compound?
**A.** Its value is 50%.

**Q.** For `CNC(=O)c1cc(Cl)cc(C)c1NC(=O)c1cc(Br)nn1-c1ncccc1Cl` [Rynaxypyr], which “Average Control %” value [4, 11] is on record?
**A.** The value was 0%.

**Q.** `CCOC(=O)OC1=C(c2cc(C)ccc2C)C(=O)N[C@]12CC[C@@H](OC)CC2` [Spirotetramat, spirotetramat] was tested. Which “Average Control %” value [4, 9] did it give?
**A.** Its value is 0%.

**Q.** What about the “Average Control %” value ([2]; 100 + 0 ppm (compound II + compound I), compound II alone) of the same compound?
**A.** Its value is 50%.

**Q.** For `CN1COCN(Cc2cnc(Cl)s2)/C1=N\[N+](=O)[O-]` [Thiamethoxam, thiamethoxam], which “Average Control %” value [4, 11] is on record?
**A.** Its value is 0%.
